From US12479856B2, “Pharmaceutical compounds for the treatment of complement mediated disorders” (Achillion Pharmaceuticals, Inc., priority 2019, dated 2025)

target: T1, Human complement C1s enzyme (Homo sapiens, UniProt P09871); experiment: Human C1s Enzyme Assay; assay type: biochemical; conditions: Table 1; C1s purified from human serum, 1.16 nM; substrate Z-L-Lys-SBzl; read-out: C1s Protease Activity
T1 construct: purified from human serum, Complement Technology, Inc; purchased Complement Technology, Inc; host or cells: human serum (plasma-derived natural protein)
T1 sequence (P09871 438-688 limits assumed): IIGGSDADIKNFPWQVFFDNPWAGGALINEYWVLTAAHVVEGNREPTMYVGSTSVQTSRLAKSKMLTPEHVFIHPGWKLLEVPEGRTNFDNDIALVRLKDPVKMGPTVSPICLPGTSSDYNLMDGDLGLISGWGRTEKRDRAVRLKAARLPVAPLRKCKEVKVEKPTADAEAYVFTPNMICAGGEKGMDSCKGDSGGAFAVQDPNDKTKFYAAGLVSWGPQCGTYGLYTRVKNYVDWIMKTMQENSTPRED
T1 sequence (P09871 16-437 partner limits assumed): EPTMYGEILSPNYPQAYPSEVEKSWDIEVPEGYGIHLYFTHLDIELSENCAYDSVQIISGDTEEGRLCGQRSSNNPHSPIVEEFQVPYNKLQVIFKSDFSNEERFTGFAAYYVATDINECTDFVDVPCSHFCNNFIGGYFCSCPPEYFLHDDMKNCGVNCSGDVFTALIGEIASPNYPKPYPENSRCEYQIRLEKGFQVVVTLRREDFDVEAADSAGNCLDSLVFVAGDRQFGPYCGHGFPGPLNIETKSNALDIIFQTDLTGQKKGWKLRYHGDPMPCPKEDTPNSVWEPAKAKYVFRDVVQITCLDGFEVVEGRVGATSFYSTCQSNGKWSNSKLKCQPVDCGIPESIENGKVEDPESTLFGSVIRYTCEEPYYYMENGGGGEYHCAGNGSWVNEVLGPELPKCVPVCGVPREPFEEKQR
Experimental: Example 4. Human C1s Enzyme Assay
Human complement C1s enzyme (purified from human serum, Complement Technology, Inc.) at 1.16 nM final concentration is incubated with test compound at various concentrations for 5 min at room temperature in 50 mM Tris, 1 M NaCl, pH 7.5. A synthetic substrate Z-L-Lys-SBzl and DTNB (Ellman's reagent) are added to final concentrations of 100 μM each. Absorbance at 405 nm (A405) is recorded at 30 second intervals for 30 min using a microplate spectrophotometer. IC50 values are calculated by nonlinear regression of complement C1s reaction rates as a function of test compound concentration.

IC50 [nM] | SMILES
> 1000 | N=C(N)CCCNC(=O)[C@@H]1CC2(CN1C(=O)CNC(=O)c1ccc(Oc3ccccc3)cc1)OCCO2 [Compound 16, (8S)—N-(3-Carbamimidoylpropyl)-7-{2-[(4-phenoxyphenyl)formamido]acetyl}-1,4-dioxa-7-azaspiro[4.4]nonane-8-carboxamide]
> 1000 | N=C(N)NCCC[C@H](NC(=O)[C@@H]1CC2(CN1C(=O)CNC(=O)c1ccc(Oc3ccccc3)cc1)OCCO2)C(N)=O [Compound 22, N-{2-[(8S)-8-{[(1S)-4-Carbamimidamido-1-carbamoylbutyl]carbamoyl}-1,4-dioxa-7-azaspiro[4.4]nonan-7-yl]-2-oxoethyl}-4-phenoxybenzamide]
< 100 | C[C@@]1(C(=O)NCc2cc(C(=N)N)cs2)CCCN1C(=O)CNC(=O)c1ccc(Oc2ccccc2)cc1 [Compound 3, (2S)—N-[(4-Carbamimidoylthiophen-2-yl)methyl]-2-methyl-1-{2-[(4-phenoxyphenyl)formamido]acetyl}pyrrolidine-2-carboxamide]
< 100 | C=C1C[C@@H](C(=O)NCc2cc(C(=N)N)cs2)N(C(=O)CNC(=O)c2ccc(Oc3ccccc3)cc2)C1 [Compound 6, (2S)—N-[(4-Carbamimidoylthiophen-2-yl)methyl]-4-methylidene-1-{2-[(4-phenoxyphenyl)formamido]acetyl}pyrrolidine-2-carboxamide]
100 to 1000 | CO[C@H]1C[C@@H](C(=O)CNC(=O)c2ccc(Oc3ccccc3)cc2)[C@H](C(=O)NCc2cc(C(=N)N)cs2)C1 [Compound 35, N-(2-((1R,2R,4S)-2-(((4-carbamimidoylthiophen-2-yl)methyl)carbamoyl)-4-methoxycyclopentyl)-2-oxoethyl)-4-phenoxybenzamide]
> 1000 | N=C(N)CCCNC(=O)[C@@H]1CCCN1C(=O)CNC(=O)c1ccc(Oc2ccccc2)cc1 [Compound 28, (S)-N-(4-amino-4-iminobutyl)-1-((4-phenoxybenzoyl)glycyl)pyrrolidine-2-carboxamide]
< 100 | N=C(N)c1csc(CNC(=O)[C@@H]2CC(=O)CN2C(=O)CNC(=O)c2ccc(Oc3ccccc3)cc2)c1 [Compound 15, (2S)—N-[(4-Carbamimidoylthiophen-2-yl)methyl]-4-oxo-1-{2-[(4-phenoxyphenyl)formamido]acetyl}pyrrolidine-2-carboxamide]
< 100 | Cc1ccc(Oc2ccc(C(=O)NCC(=O)N3CC4(C[C@H]3C(=O)NCc3cc(C(=N)N)cs3)OCCO4)cc2)cc1 [Compound 1, (8S)—N-[(4-carbamimidoylthiophen-2-yl)methyl]-7-(2-{[4-(4-methylphenoxy)phenyl]formamido}acetyl)-1,4-dioxa-7-azaspiro[4.4]nonane-8-carboxamide]
> 1000 | CO[C@H]1C[C@H](C(=O)CNC(=O)c2ccc(Oc3ccccc3)cc2)[C@H](C(=O)NCc2cc(C(=N)N)cs2)C1 [Compound 34, N-(2-((1S,2R,4S)-2-(((4-carbamimidoylthiophen-2-yl)methyl)carbamoyl)-4-methoxycyclopentyl)-2-oxoethyl)-4-phenoxybenzamide]
< 100 | N=C(N)c1ccc(CNC(=O)[C@@H]2CC3(CN2C(=O)CNC(=O)c2ccc(Oc4ccccc4)cc2)OCCO3)cc1 [Compound 19, (8S)—N-[(4-Carbamimidoylphenyl)methyl]-7-{2-[(4-phenoxyphenyl)formamido]acetyl}-1,4-dioxa-7-azaspiro[4.4]nonane-8-carboxamide]
> 1000 | CC(=O)Nc1cccc(CNC(=O)[C@@H]2CC3(CN2C(=O)CNC(=O)c2ccc(Oc4ccccc4)cc2)OCCO3)c1 [Compound 20, (8S)—N-[(3-Acetamidophenyl)methyl]-7-{2-[(4-phenoxyphenyl)formamido]acetyl}-1,4-dioxa-7-azaspiro[4.4]nonane-8-carboxamide]
> 1000 | N=C(N)c1csc(CNC(=O)[C@H]2CCCN2C(=O)CNC(=O)c2ccc(Oc3ccccc3)cc2)c1 [Compound 5, (2R)—N-[(4-Carbamimidoylthiophen-2-yl)methyl]-1-{2-[(4-phenoxyphenyl)-formamido]acetyl}pyrrolidine-2-carboxamide]
100 to 1000 | N=C(N)c1csc(CNC(=O)[C@@H]2CN2C(=O)CNC(=O)c2ccc(Oc3ccccc3)cc2)c1 [Compound 14, (2S)—N-[(4-Carbamimidoylthiophen-2-yl)methyl]-1-{2-[(4-phenoxyphenyl)formamido]acetyl}aziridine-2-carboxamide]

same assay, conditions: Table 2; C1s purified from human serum, 1.16 nM; substrate Z-L-Lys-SBzl; read-out: C1s Protease Activity

IC50 [nM] | SMILES
< 100 | CCCCCc1ccc(C(=O)NCC(=O)N2CCC[C@H]2C(=O)NCc2cc(C(=N)N)cs2)cc1 [Compound 74, (S)-N-((4-carbamimidoylthiophen-2-yl)methyl)-1-((4-pentylbenzoyl)glycyl)pyrrolidine-2-carboxamide]
> 1000 | N=C(N)c1csc(CNC(=O)[C@@H]2CCCN2C(=O)CCC2(c3ccc(Oc4ccccc4)cc3)CC2)c1 [Compound 44, (S)-N-((4-carbamimidoylthiophen-2-yl)methyl)-1-(3-(1-(4-phenoxyphenyl)cyclopropyl)propanoyl)pyrrolidine-2-carboxamide]
< 100 | CCCCc1ccc(C(=O)NCC(=O)N2CCC[C@H]2C(=O)NCc2cc(C(=N)N)cs2)cc1 [Compound 73, (S)-1-((4-butylbenzoyl)glycyl)-N-((4-carbamimidoylthiophen-2-yl)methyl)pyrrolidine-2-carboxamide]
> 1000 | C[C@H](OCc1ccccc1)[C@H](OCc1ccccc1)[C@@H](OCc1ccccc1)[C@H](CN(CC(=O)N1CC2(C[C@H]1C(=O)NCc1nc(C(=N)N)cs1)OCCO2)C(=O)OCc1ccccc1)OCc1ccccc1 [Compound 89, benzyl (2-((S)-8-(((4-carbamimidoylthiazol-2-yl)methyl)carbamoyl)-1,4-dioxa-7-azaspiro[4.4]nonan-7-yl)-2-oxoethyl)((2S,3S,4S,5S)-2,3,4,5-tetrakis(benzyloxy)hexyl)carbamate]
< 100 | Cc1cc(C(=O)NCC(=O)N2[C@H]3C[C@@]3(C)C[C@H]2C(=O)NCc2cc(C(=N)N)cs2)ccc1Oc1ccccc1 [Compound 48, (1S,3S,5S)-N-((4-carbamimidoylthiophen-2-yl)methyl)-5-methyl-2-((3-methyl-4-phenoxybenzoyl)glycyl)-2-azabicyclo[3.1.0]hexane-3-carboxamide]
> 1000 | N=C(N)c1csc(CNC(=O)[C@@H]2CCCN2CCCCc2ccc(Oc3ccccc3)cc2)c1 [Compound 37, (S)-N-((4-carbamimidoylthiophen-2-yl)methyl)-1-(4-(4-phenoxyphenyl)butyl)pyrrolidine-2-carboxamide]
< 100 | CCCCCCc1ccc(C(=O)NCC(=O)N2CCC[C@H]2C(=O)NCc2cc(C(=N)N)cs2)cc1 [Compound 75, (S)-N-((4-carbamimidoylthiophen-2-yl)methyl)-1-((4-hexylbenzoyl)glycyl)pyrrolidine-2-carboxamide]
> 1000 | CN(C)CCCCCC(=O)NCC(=O)N1CCC[C@H]1C(=O)NCc1cc(C(=N)N)cs1 [Compound 71, (S)-N-((4-carbamimidoylthiophen-2-yl)methyl)-1-((6-(dimethylamino)hexanoyl)glycyl)pyrrolidine-2-carboxamide]
100 to 1000 | C=C(CCC(=O)N1CCC[C@H]1C(=O)NCc1cc(C(=N)N)cs1)c1ccc(Oc2ccccc2)cc1 [Compound 40, (S)-N-((4-carbamimidoylthiophen-2-yl)methyl)-1-(4-(4-phenoxyphenyl)pent-4-enoyl)pyrrolidine-2-carboxamide]
< 100 | CCCCCOc1ccc(C(=O)NCC(=O)N2CCC[C@H]2C(=O)NCc2cc(C(=N)N)cs2)cc1 [Compound 79, (S)-N-((4-carbamimidoylthiophen-2-yl)methyl)-1-((4-(pentyloxy)benzoyl)glycyl)pyrrolidine-2-carboxamide]

same assay, conditions: Table 3; C1s purified from human serum, 1.16 nM; substrate Z-L-Lys-SBzl; read-out: C1s Protease Activity

IC50 [nM] | SMILES
< 100 | N=C(N)c1csc(CNC(=O)[C@@H]2C[C@H](Oc3ccc(F)cc3)CN2C(=O)CNC(=O)c2ccc(Oc3ccccc3)cc2)c1 [Compound 103, (2S,4S)-N-((4-carbamimidoylthiophen-2-yl)methyl)-4-(4-fluorophenoxy)-1-((4-phenoxybenzoyl)glycyl)pyrrolidine-2-carboxamide]
< 100 | N=C(N)c1csc(CNC(=O)[C@@H]2C[C@@H](c3ccccc3)CN2C(=O)CNC(=O)c2ccc(Oc3ccccc3)cc2)c1 [Compound 97, (2S,4S)-N-((4-carbamimidoylthiophen-2-yl)methyl)-1-((4-phenoxybenzoyl)glycyl)-4-phenylpyrrolidine-2-carboxamide]
